Laboratory results from patent US20250019350A1, “SYNTHESIS OF THE PROSTATE SPECIFIC MEMBRANE ANTIGEN (PSMA) RADIOLABELED INHIBITOR [18F]DCFPYL” (Progenics Pharmaceuticals, Inc, priority 2023, published 2025).

Experiment: Radiolysis / stability of [18F]DCFPyL over time by HPLC with radiodetection (RCP, free 18F, radioactive impurities)
Format: physicochemical
Conditions: for RCP: 4 hours
Description: Those of ordinary skill in the art will be aware of techniques and systems for determining the radiochemical purity of a composition. In some cases, the radiochemical purity is determined using an HPLC associated with a radio-detector. Generally, the radiochemical purity is determined under ambient conditions (e.g., ambient temperature, ambient humidity, ambient light, etc.), such as in samples stored under such conditions.
Stability was assessed using reverse phase HPLC on a C18 column with a phosphate buffer/acetonitrile gradient mobile phase, and the elution profile was monitored using both UV and radiochemical detectors. Samples were analyzed either by direct injection onto the HPLC, dilution and injection or including the addition of tetraethylammonium fluoride (TEAF) into the sample before injection.
Known amounts of free ^18F either alone or spiked with TEAF were injected onto the analytic column and the eluent from the column collected over the course of a chromatogram and assaying the radioactivity using a Capintec. […] Adding TEAF into the analytic samples was incorporated into subsequent studies examining potential radiolysis of [^18F]DCFPyL to overcome some of the limitations of free ^18F quantification.
Analytical HPLC method was used. The method employs UV detection at 264 nm for chemical impurities, and an Eckert & Ziegler model B-FC-1000 gamma detector for radiochemical assays.

[1] = 110 mCi/mL in 50 mg/mL pH 5.8 ascorbic acid, T = 3.0 h
[2] = 110 mCi/mL in 50 mg/mL pH 5.8 ascorbic acid, T = 3.5 h
[3] = 110 mCi/mL in 50 mg/mL pH 5.8 ascorbic acid, T = 4.0 h
[4] = 147 mCi/mL in 0.9% Sodium Chloride, USP, no ascorbic acid, T = 0 h
[5] = 147 mCi/mL in 0.9% Sodium Chloride, USP, no ascorbic acid, T = 0.5 h
[6] = 147 mCi/mL in 0.9% Sodium Chloride, USP, no ascorbic acid, T = 1.0 h
[7] = 147 mCi/mL in 0.9% Sodium Chloride, USP, no ascorbic acid, T = 1.5 h
[8] = 147 mCi/mL in 0.9% Sodium Chloride, USP, no ascorbic acid, T = 2.0 h
[9] = 147 mCi/mL in 0.9% Sodium Chloride, USP, no ascorbic acid, T = 2.5 h
[10] = 147 mCi/mL in 0.9% Sodium Chloride, USP, no ascorbic acid, T = 3.0 h
[11] = 147 mCi/mL in 0.9% Sodium Chloride, USP, no ascorbic acid, T = 3.5 h
[12] = 147 mCi/mL in 0.9% Sodium Chloride, USP, no ascorbic acid, T = 4.0 h

Structure (SMILES): O=C(O)CC[C@H](NC(=O)N[C@@H](CCCCNC(=O)c1ccc([18F])nc1)C(=O)O)C(=O)O [Lot 18F-DCFPyL, 2-(3-{1-carboxy-5-[(6-[18F]fluoro-pyridine-3-carbonyl)-amino]-pentyl}ureido)-pentanedioic acid]
- free 18F accumulating over 4 hrs (50 mg/mL ascorbic acid pH 5.8, 20% ethanol, 111 mCi/mL at EOS): 0.26%
- free 18F accumulating over 4 hrs (100 mg/mL ascorbic acid pH 2.0, 256 mCi/mL at EOS): 0.08%
- 18F-DCFPyL (110 mCi/mL in 50 mg/mL pH 5.8 ascorbic acid, T = 0 h): 99.73 area %
- 18F-DCFPyL (110 mCi/mL in 50 mg/mL pH 5.8 ascorbic acid, T = 0.5 h): 99.72 area %
- 18F-DCFPyL (110 mCi/mL in 50 mg/mL pH 5.8 ascorbic acid, T = 1.0 h): 96.74 area %
- 18F-DCFPyL (110 mCi/mL in 50 mg/mL pH 5.8 ascorbic acid, T = 1.5 h): 99.66 area %
- 18F-DCFPyL (110 mCi/mL in 50 mg/mL pH 5.8 ascorbic acid, T = 2.0 h): 99.76 area %
- 18F-DCFPyL (110 mCi/mL in 50 mg/mL pH 5.8 ascorbic acid, T = 2.5 h): 99.66 area %
- 18F-DCFPyL [1]: 99.30 area %
- Free 18F [1]: 0.35 area %
- 18F-DCFPyL [2]: 99.46 area %
- Free 18F [2]: 0.24 area %
- 18F-DCFPyL [3]: 99.43 area %
- Free 18F [3]: 0.26 area %
- 18F-DCFPyL [4]: 94.17 area %
- Free 18F [4]: 4.68 area %
- 18F-DCFPyL [5]: 90.65 area %
- Free 18F [5]: 7.73 area %
- 18F-DCFPyL [6]: 90.71 area %
- Free 18F [6]: 7.69 area %
- 18F-DCFPyL [7]: 89.59 area %
- Free 18F [7]: 8.78 area %
- 18F-DCFPyL [8]: 89.50 area %
- Free 18F [8]: 8.67 area %
- 18F-DCFPyL [9]: 88.79 area %
- Free 18F [9]: 9.66 area %
- 18F-DCFPyL [10]: 88.94 area %
- Free 18F [10]: 9.49 area %
- 18F-DCFPyL [11]: 88.90 area %
- Free 18F [11]: 9.56 area %
- 18F-DCFPyL [12]: 89.06 area %
- Free 18F [12]: 9.27 area %
- Free 18F (256 mCi/mL in ethanol, ascorbic acid in process, T = 0 h): 0.29 area %
- Free 18F (256 mCi/mL in ethanol, ascorbic acid in process, T = 0.5 h): 0.40 area %
- Free 18F (256 mCi/mL in ethanol, ascorbic acid in process, T = 1.0 h): 0.31 area %
- Free 18F (256 mCi/mL in ethanol, ascorbic acid in process, T = 1.5 h): 0.31 area %
- Free 18F (256 mCi/mL in ethanol, ascorbic acid in process, T = 2.0 h): 0.31 area %
- Free 18F (256 mCi/mL in ethanol, ascorbic acid in process, T = 2.5 h): 0.31 area %
- Free 18F (256 mCi/mL in ethanol, ascorbic acid in process, T = 3.0 h): 0.29 area %
- Free 18F (256 mCi/mL in ethanol, ascorbic acid in process, T = 3.5 h): 0.42 area %
- Free 18F (256 mCi/mL in ethanol, ascorbic acid in process, T = 4.0 h): 0.40 area %
- 18F-DCFPyL (256 mCi/mL in ethanol, 100 mg/mL pH 2.0 ascorbic acid in collection vial and HLB wash, T = 0 h): 99.71 area %
- 18F-DCFPyL (256 mCi/mL in ethanol, 100 mg/mL pH 2.0 ascorbic acid in collection vial and HLB wash, T = 0.5 h): 99.60 area %
- 18F-DCFPyL (256 mCi/mL in ethanol, 100 mg/mL pH 2.0 ascorbic acid in collection vial and HLB wash, T = 1.0 h): 98.68 area %
- 18F-DCFPyL (256 mCi/mL in ethanol, 100 mg/mL pH 2.0 ascorbic acid in collection vial and HLB wash, T = 1.5 h): 98.58 area %
- 18F-DCFPyL (256 mCi/mL in ethanol, 100 mg/mL pH 2.0 ascorbic acid in collection vial and HLB wash, T = 2.0 h): 98.20 area %
- 18F-DCFPyL (256 mCi/mL in ethanol, 100 mg/mL pH 2.0 ascorbic acid in collection vial and HLB wash, T = 2.5 h): 98.71 area %
- 18F-DCFPyL (256 mCi/mL in ethanol, 100 mg/mL pH 2.0 ascorbic acid in collection vial and HLB wash, T = 3.0 h): 98.46 area %
- 18F-DCFPyL (256 mCi/mL in ethanol, 100 mg/mL pH 2.0 ascorbic acid in collection vial and HLB wash, T = 3.5 h): 97.96 area %
- 18F-DCFPyL (256 mCi/mL in ethanol, 100 mg/mL pH 2.0 ascorbic acid in collection vial and HLB wash, T = 4.0 h): 97.95 area %
- RCP (5 mg/mL ascorbate pH 6 FPV prefill and 6 mg/mL pH 6 ascorbate as delivery solution): 98%
- RCP (10 mg/mL pH 6 ascorbate in collection vial and 5 mg/mL pH 6 ascorbic acid in final product vial): 99%
